Laboratory results from US20250114374A1, “BCL-2 INHIBITORS” (Newave Pharmaceutical Inc., priority 2021, published 2025).
Structures can show the parent of a compound that is named as a salt. Where two headings read alike, the source gives them in different places.

System: RS4; 11 with G101V mutation
Assay: In vitro anti-proliferation assay (ATPlite luminescence) in BCL-2-dependent ALL cell line RS4;11 with G101V mutation
Format: cell-based
Details: cellular anti-proliferative IC50, about 72 hours, medium with 10% FBS, ATPlite, read-out: RS411-G101V IC50
Protocol: Cell antiproliferation was assayed by PerkinElmer ATPlite™ Luminescence Assay System. Briefly, the various test cancer cell lines were plated at a density of about 1×10^4 cells per well in Costar 96-well plates, and were incubated with different concentrations of compounds for about 72 hours in medium supplemented with 10% FBS. One lyophilized substrate solution vial was then reconstituted by adding 5 mL of substrate buffer solution, and was agitated gently until the solution was homogeneous. About 50 μL of mammalian cell lysis solution was added to 100 μL of cell suspension per well of a microplate, and the plate was shaken for about five minutes in an orbital shaker at ˜700 rpm. This procedure was used to lyse the cells and to stabilize the ATP. Next, 50 μL substrate solution was added to the wells and microplate was shaken for five minutes in an orbital shaker at ˜700 rpm. Finally, the luminescence was measured by a PerkinElmer TopCount® Microplate Scintillation Counter. Such assays, carried out with a range of doses of test compounds, allowed the determination of the cellular anti-antiproliferative IC50 of the compounds of the present invention.
The following table lists the IC50 values of another study for certain compounds of the invention.

| Compound | IC50 [nM] | IC50 (hydrochloride) [nM] |
| --- | --- | --- |
| COc1cc(CN2CCN(C3CC4(CCN(c5ccc(C(=O)NS(=O)(=O)c6ccc(NCC7CCC(C)(O)CC7)c([N+](=O)[O-])c6)c(N6c7cc8cc[nH]c8nc7O[C@H]7COCC[C@@H]76)c5)CC4)C3)[C@@H](c3ccccc3OC(C)C)C2)cnc1N1CCOC[C@H]1C (stereo partly drawn) [Example 111, 2-[(3R,8S)-2,5-dioxa-9,15,17-triazatetracyclo[8.7.0.0^{3,8}.0^{12,16}]heptadeca-1(10),11,13,16-tetraen-9-yl]-4-{2-[(2S)-2-(2-isopropoxyphenyl)-4-({5-methoxy-6-[(3R)-3-methylmorpholin-4-yl]pyridin-3-yl}methyl)piperazin-1-yl]-7-azaspiro[3.5]nonan-7-yl}-N-[3-nitro-4-({[(1r,4r)-4-hydroxy-4-methylcyclohexyl]methyl}amino)benzenesulfonyl]benzamide] | 10.7 | – |
| Cc1ccccc1[C@@H]1CN(C2CCC(C)(O)CC2)CCN1C1CC2(CCN(c3ccc(C(=O)NS(=O)(=O)c4ccc(NCC5CCC(C)(O)CC5)c([N+](=O)[O-])c4)c(N4c5cc6cc[nH]c6nc5O[C@H]5COCC[C@@H]54)c3)CC2)C1 (stereo partly drawn) [Example 112, 2-[(3R,8S)-2,5-dioxa-9,15,17-triazatetracyclo[8.7.0.0^{3,8}.0^{12,16}]heptadeca-1(10),11,13,16-tetraen-9-yl]-4-{2-[(2R)-2-(2-methylphenyl)-4-[(1r,4r)-4-hydroxy-4-methylcyclohexyl]piperazin-1-yl]-7-azaspiro[3.5]nonan-7-yl}-N-[3-nitro-4-({[(1r,4r)-4-hydroxy-4-methylcyclohexyl]methyl}amino)benzenesulfonyl]benzamide] | 10.9 | – |
| Cc1ccccc1[C@@H]1CN(C2CCC(C)(O)CC2)CCN1C1CC2(CCN(c3ccc(C(=O)NS(=O)(=O)c4ccc(NCC5CCC(C)(O)CC5)c([N+](=O)[O-])c4)c(N4c5cc6cc[nH]c6nc5O[C@H]5COCC[C@@H]54)c3)CC2)C1 (stereo partly drawn) [Example 113, 2-[(3R,8S)-2,5-dioxa-9,15,17-triazatetracyclo[8.7.0.0^{3,8}.0^{12,16}]heptadeca-1(10),11,13,16-tetraen-9-yl]-4-{2-[(2R)-2-(2-methylphenyl)-4-[(1s,4s)-4-hydroxy-4-methylcyclohexyl]piperazin-1-yl]-7-azaspiro[3.5]nonan-7-yl}-N-[3-nitro-4-({[(1r,4r)-4-hydroxy-4-methylcyclohexyl]methyl}amino)benzenesulfonyl]benzamide hydrochloride] | – | 8.2 |
| Cc1ccccc1[C@@H]1CN(C2CCOCC2)CCN1C1CC2(CCN(c3ccc(C(=O)NS(=O)(=O)c4ccc(NCC5CCC(C)(O)CC5)c([N+](=O)[O-])c4)c(N4c5cc6cc[nH]c6nc5O[C@H]5COCC[C@@H]54)c3)CC2)C1 (stereo partly drawn) [Example 114, 2-[(3R,8S)-2,5-dioxa-9,15,17-triazatetracyclo[8.7.0.0^{3,8}.0^{12,16}]heptadeca-1(10),11,13,16-tetraen-9-yl]-4-{2-[(2R)-2-(2-methylphenyl)-4-(oxan-4-yl)piperazin-1-yl]-7-azaspiro[3.5]nonan-7-yl}-N-[3-nitro-4-({[(1r,4r)-4-hydroxy-4-methylcyclohexyl]methyl}amino)benzenesulfonyl]benzamide] | 11.8 | – |
| CC(C)Oc1ccccc1[C@H]1CN(Cc2ccc(F)c(F)c2)CCN1C1CC2(CCN(c3ccc(C(=O)NS(=O)(=O)c4ccc(NCC5CCC(C)(O)CC5)c([N+](=O)[O-])c4)c(N4c5cc6cc[nH]c6nc5O[C@H]5COCC[C@@H]54)c3)CC2)C1 (stereo partly drawn) [Example 115, 4-{2-[(2S)-4-[(3,4-difluorophenyl)methyl]-2-(2-isopropoxyphenyl)piperazin-1-yl]-7-azaspiro[3.5]nonan-7-yl}-2-[(3R,8S)-2,5-dioxa-9,15,17-triazatetracyclo[8.7.0.0^{3,8}.0^{12,16}]heptadeca-1(10),11,13,16-tetraen-9-yl]-N-[3-nitro-4-({[(1r,4r)-4-hydroxy-4-methylcyclohexyl]methyl}amino)benzenesulfonyl]benzamide] | 27.3 | – |
| CC(C)Oc1ccccc1[C@H]1CN(Cc2ccc(N3CCOC[C@H]3C)cc2)CCN1C1CC2(CCN(c3ccc(C(=O)NS(=O)(=O)c4ccc(NCC5CCC(C)(O)CC5)c([N+](=O)[O-])c4)c(N4c5cc6cc[nH]c6nc5O[C@H]5COCC[C@@H]54)c3)CC2)C1 (stereo partly drawn) [Example 116, 2-[(3R,8S)-2,5-dioxa-9,15,17-triazatetracyclo[8.7.0.0^{3,8}.0^{12,16}]heptadeca-1(10),11,13,16-tetraen-9-yl]-4-{2-[(2S)-2-(2-isopropoxyphenyl)-4-({4-[(3R)-3-methylmorpholin-4-yl]phenyl}methyl)piperazin-1-yl]-7-azaspiro[3.5]nonan-7-yl}-N-[3-nitro-4-({[(1r,4r)-4-hydroxy-4-methylcyclohexyl]methyl}amino)benzenesulfonyl]benzamide] | 28.7 | – |
| CC(C)Oc1ccccc1[C@H]1CN(Cc2cnc3c(c2)OCCO3)CCN1C1CC2(CCN(c3ccc(C(=O)NS(=O)(=O)c4ccc(NCC5CCC(C)(O)CC5)c([N+](=O)[O-])c4)c(N4c5cc6cc[nH]c6nc5O[C@H]5COCC[C@@H]54)c3)CC2)C1 (stereo partly drawn) [Example 117, 2-[(3R,8S)-2,5-dioxa-9,15,17-triazatetracyclo[8.7.0.0^{3,8}.0^{12,16}]heptadeca-1(10),11,13,16-tetraen-9-yl]-4-{2-[(2S)-4-{2H,3H-[1,4]dioxino[2,3-b]pyridin-7-ylmethyl}-2-(2-isopropoxyphenyl)piperazin-1-yl]-7-azaspiro[3.5]nonan-7-yl}-N-[3-nitro-4-({[(1r,4r)-4-hydroxy-4-methylcyclohexyl]methyl}amino)benzenesulfonyl]benzamide] | 13.2 | – |
| COc1cc(CN2CCN(C3CC4(CCN(c5ccc(C(=O)NS(=O)(=O)c6ccc(NCC7CCC(C)(O)CC7)c([N+](=O)[O-])c6)c(N6c7cc8cc[nH]c8nc7O[C@H]7COCC[C@@H]76)c5)CC4)C3)[C@H](c3ccccc3C)C2)cnc1OC (stereo partly drawn) [Example 118, 4-{2-[(2R)-4-[(5,6-dimethoxypyridin-3-yl)methyl]-2-(2-methylphenyl)piperazin-1-yl]-7-azaspiro[3.5]nonan-7-yl}-2-[(3R,8S)-2,5-dioxa-9,15,17-triazatetracyclo[8.7.0.0^{3,8}.0^{12,16}]heptadeca-1(10),11,13,16-tetraen-9-yl]-N-[3-nitro-4-({[(1r,4r)-4-hydroxy-4-methylcyclohexyl]methyl}amino)benzenesulfonyl]benzamide] | 4.4 | – |
| COc1cc(CN2CCN(C3CC4(CCN(c5ccc(C(=O)NS(=O)(=O)c6ccc(NCC7CCC(C)(O)CC7)c([N+](=O)[O-])c6)c(N6c7cc8cc[nH]c8nc7O[C@H]7COCC[C@@H]76)c5)CC4)C3)[C@@H](c3ccccc3OC(C)C)C2)cnc1N1CCOCC1 (stereo partly drawn) [Example 119, N-((4-((((1r,4r)-4-hydroxy-4-methylcyclohexyl)methyl)amino)-3-nitrophenyl)sulfonyl)-4-(2-((S)-2-(2-isopropoxyphenyl)-4-((5-(methoxy-d3)-6-morpholinopyridin-3-yl)methyl)piperazin-1-yl)-7-azaspiro[3.5]nonan-7-yl)-2-((5aS,9aR)-6,7,9,9a-tetrahydro-1H-pyrano[3,4-b]pyrrolo[3′,2′:5,6]pyrido[3,2-e][1,4]oxazin-5(5aH)-yl)benzamide] | 14.6 | – |
